Holding throughout (assay): inhibition of tumour cell growth, NCI panel, 48 h
For experiment [1], the system named is MDA-MB-435.
Experiment [2] concerns SK-OV-3 ovarian.
For experiment [3], the system named is SR leukemia.
The subject of experiment [4] is IGROV1 ovarian.
Experiment [5] concerns MDA-MB-231 breast.
For experiment [6], the system named is SK-MEL-2 melanoma.
Experiment [7] deals with K-562 leukemia.
Experiment [8] concerns NCI-H226 lung.
Experiment [9] has as its system HOP-62 NSCLC.
Experiment [10] relates to DU-145 prostate.

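The compound was tested at five concentrations on cells cultured in 96-well plates, with a 48-hour exposure period. GI50: concentration for 50% inhibition of growth. TGI denotes the concentration required for complete inhibition of growth.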

Take `CC(C)=CCc1cc2c(cc1O)C1=C(C(=O)C3=C(NCCS3(=O)=O)C1=O)C(C=C(C)C)O2` (stereo not given): the GI50 is 2.89 µM in experiment [1]; more than 16.7 µM in [2]; 5.46 µM in experiment [3]; 3.69 µM in experiment [4]; 4.18 µM in experiment [5]; 4.34 µM in [6]. Further, the GI50 was 5.02 µM in [7], 14.4 µM in experiment [8] and 8.59 µM in [9]. The TGI in experiment [1] was 5.6 µM; in [2], more than 16.7 µM; in [3], more than 16.7 µM; in experiment [4], 15 µM; in experiment [5], 16.2 µM; in [6], 15 µM. The TGI in experiment [7], in experiment [8] and in experiment [9] was more than 16.7 µM each time.
`Cn1cc(C2NC(=O)c3ccccc3N2)c2ccccc21` (stereo not given): the TGI in experiment [1] was more than 100 µM; in experiment [2], 40.3 µM; in [4], more than 100 µM; in experiment [5] it was more than 100 µM; in experiment [8] it was 3.59 µM; in experiment [9], more than 100 µM.
With `C=CCC1(O)c2ccccc2C(=O)c2c(OCC(=O)OCC)ccc(OCC(=O)OCC)c21` (stereo not given), the GI50 in [1] is more than 100 µM; in experiment [3] it was 82.6 µM; in [4], more than 100 µM; in experiment [5], 25.6 µM; in experiment [6], more than 100 µM; in experiment [7], more than 100 µM. Further, the GI50 in [8], in [10] and in experiment [9] was more than 100 µM in each case. Moreover, the TGI in experiment [1], in experiment [3], in experiment [4], in experiment [5], in experiment [6] and in [7] was more than 100 µM in each case. The TGI in experiment [8], in experiment [10] and in experiment [9] was more than 100 µM throughout.
Regarding `COC(=O)C(=O)C(C(=O)C(=O)Nc1ccc(Cl)c(Cl)c1)c1nc2ccc(C(=O)c3ccccc3)cc2[nH]c1=O` (stereo not given), the TGI in experiment [1] is more than 100 µM; in experiment [2], more than 100 µM; in experiment [4], more than 100 µM; in experiment [5], more than 100 µM; in experiment [6], more than 100 µM; in experiment [7], 12.9 µM. The TGI in experiment [8] and in experiment [9] was more than 100 µM in each case.
Take `CCOC(=O)c1noc2c1CCc1c-2cn(Cc2ccc(OC)cc2)c1-c1cc(OC)c(OC)c(OC)c1`: the GI50 is 0.574 µM in experiment [1]; 5.23 µM in experiment [2]; 2.09 µM in experiment [3]; 2.45 µM in experiment [4]; 2.7 µM in experiment [5]; 4.29 µM in [6]. For the same compound, the GI50 in experiment [8] was more than 100 µM; in experiment [10] it was 2.32 µM; in experiment [9], 2.53 µM. Further, the TGI in experiment [1], in [2], in [3], in [4], in experiment [5] and in [6] was more than 100 µM in each case. In addition, the TGI in [8] was more than 100 µM; in [10], 6.14 µM; in [9] it was more than 100 µM.
For the compound `NS(=O)(=O)c1ccc(N(/C=C/C(=O)C(F)(F)F)CC(=O)c2ccc(F)cc2)cc1`, the GI50 was 26.5 µM in [1]; 63.3 µM in [2]; 24.8 µM in experiment [4]; 20.9 µM in [5]; 26.1 µM in experiment [6]; 14 µM in [7]. Moreover, the GI50 in experiment [8] is 22.6 µM; in [10] it was 20.6 µM; in experiment [9], 65.4 µM. Besides, the TGI was 79.6 µM in [1]; more than 100 µM in [2]; 52.5 µM in experiment [4]; 42 µM in experiment [5]; 55.2 µM in experiment [6]; 54.6 µM in [7]. Besides, the TGI in [8] is 40.9 µM; in [10], 52.2 µM; in experiment [9] it was more than 100 µM.
Take `O=C1C=C(Nc2ccccc2)c2ccccc2C1=O`: the GI50 is 1.93 µM in experiment [1]; 2.95 µM in experiment [2]; 3.22 µM in experiment [3]; 2.78 µM in experiment [4]; 1.88 µM in experiment [5]; 2.64 µM in experiment [7]. Besides, the GI50 in experiment [8] was 1.93 µM; in [10], 1.84 µM; in [9], 1.17 µM. Moreover, the TGI in experiment [1] worked out at 3.7 µM; in [2] it was 8.99 µM; in [3], 12.4 µM; in [4] it was 7.31 µM; in [5], 7.61 µM; in experiment [7], 7.81 µM. In addition, the TGI in [8] worked out at 4.21 µM; in experiment [10], 3.29 µM; in experiment [9] it was 2.83 µM.
Consider `O=C(O)c1ccc(N(/C=C/C(=O)C(F)(F)F)Cc2ccc(Cl)cc2)cc1`, for which the GI50 in experiment [1] was 35.5 µM; in [2] it was 35.5 µM; in [3], 27.3 µM; in [4], 20.3 µM; in [5] it was 18.6 µM; in [6] it was 19.1 µM. The GI50 is 22.4 µM in [10] and 24.5 µM in experiment [9]. Also, the TGI is more than 100 µM in [1]; more than 100 µM in experiment [2]; 71.5 µM in [3]; 48.9 µM in [4]; 48.2 µM in [5]; 53.3 µM in experiment [6]. Besides, the TGI in [10] turned out to be 62.1 µM; in experiment [9] it was 65.3 µM.
With `C=CC1(C)CCC2C(=CCC3C2(C)CC(O)C(O)C3(C)COC2OC(CO)C(O)C(O)C2O)C1` (stereo not given), the TGI in experiment [1], in experiment [2], in experiment [3], in [4], in experiment [5] and in [6] was more than 100 µM throughout. The TGI in [7], in [8] and in [10] was more than 100 µM in each case.
`CN1CCN(Cc2ccc(NC(=O)c3cncc(C#Cc4cnc(N)c5ncccc45)c3)cc2C(F)(F)F)CC1`: the GI50 is 0.247 µM in experiment [1]; 0.391 µM in experiment [2]; 0.175 µM in experiment [4]; 0.147 µM in experiment [5]; 0.142 µM in [6]; 0.267 µM in [8]. In addition, the GI50 in experiment [10] was 0.37 µM; in [9], 0.448 µM. In addition, the TGI in experiment [1] is 1.44 µM; in experiment [2] it was 9.07 µM; in experiment [4], 2.58 µM; in experiment [5], 0.71 µM; in experiment [6], 0.468 µM; in experiment [7], 1.92 µM. Also, the TGI in experiment [8] turned out to be 12.5 µM; in experiment [10], 7.33 µM; in [9], 5.78 µM.
On to `CC(=O)/C(=C\c1ccc(Cl)cc1)c1ccccc1`, for which the GI50 in experiment [2] was 0.0942 µM; in [3] it was 0.0415 µM; in [4], 0.344 µM; in [5] it was 0.212 µM; in [6], 0.141 µM; in experiment [7], 0.0501 µM. Moreover, the GI50 is 2.3 µM in experiment [8], 0.285 µM in experiment [10] and 0.179 µM in experiment [9]. In addition, the TGI in experiment [2] is more than 100 µM; in experiment [3], more than 49.7 µM; in [4] it was more than 100 µM; in experiment [5], more than 100 µM; in experiment [6], more than 100 µM; in [7], more than 100 µM. The TGI in [8] was more than 90.1 µM; in experiment [10] it was more than 100 µM; in experiment [9], more than 100 µM.
Take `CCN1CCN(CCC(=O)Nc2cccc(-n3cc(-c4ccncc4)c(-c4ccc(Cl)c(OC)c4)n3)c2)CC1`: the GI50 in experiment [1] was 0.123 µM; in [2], 1.84 µM; in [3] it was 0.433 µM; in [4], 1.09 µM; in [5] it was 1.21 µM; in [6] it was 1.11 µM. The GI50 was 1.26 µM in experiment [8], 0.432 µM in experiment [10] and 0.697 µM in [9]. For the same compound, the TGI is 0.35 µM in experiment [1]; 7.67 µM in experiment [2]; 2.37 µM in experiment [3]; 5.18 µM in experiment [4]; 2.92 µM in experiment [5]; 2.55 µM in [6]. Besides, the results for the TGI in [8], in experiment [10] and in experiment [9] were 7.31 µM, 5.96 µM and 2.43 µM, respectively.
Take `O=c1nc2n(-c3cccc(Cl)c3)c3ccc([N+](=O)[O-])cc3cc-2c(=O)[nH]1`: the GI50 in experiment [1] is 4.06 µM; in [2], 15 µM; in experiment [4] it was 17.4 µM; in [5], 5.36 µM; in [6], more than 25 µM; in experiment [7], 17.1 µM. The GI50 is 5.51 µM in experiment [8], 6.73 µM in experiment [10] and 2.88 µM in experiment [9]. The TGI was 8.09 µM in experiment [1]; more than 25 µM in experiment [2]; more than 25 µM in [4]; 12.3 µM in experiment [5]; more than 25 µM in experiment [6]; more than 25 µM in experiment [7]. Moreover, the TGI in experiment [8] is 13.6 µM; in experiment [10], more than 25 µM; in [9], 9.2 µM.
